Inhibition in vivo data for 35 compounds are collected here from patent US4966891A, “Fluorocytidine derivatives” (priority 1987, dated 1990).

Assay [1] concerns Sarcoma 180. Put plainly: Antitumor testing against Sarcoma 180 (oral, s.c. implanted). It counts as in vivo, mice. As to conditions: Mus musculus, 336 h, day 14, read-out: Inhibition of tumor growth; for inhibition in vivo at 1400 µmol/kg: 1.4 mmole/kg/day × 7, p.o.; for inhibition in vivo at 2700 µmol/kg: 2.7 mmole/kg/day × 7, p.o.; for inhibition in vivo at 1500 µmol/kg: 1.5 mmole/kg/day × 7, p.o.; for inhibition in vivo at 500 µmol/kg: 0.5 mmole/kg/day × 7, p.o.; for inhibition in vivo at 3000 µmol/kg: 3.0 mmole/kg/day × 7, p.o. The protocol: (§1) Sarcoma 180 cells (2×10^6 cells) were implanted subcutaneously into mice (20-22 g) on day 0. The compounds of the present invention were administered daily from day 1 through 7 orally. The animals were sacrificed on day 14 and tumors were excised and weighed. The percent inhibition of tumor growth given in Table 1 below was calculated from the formula:
(§2) T=weight of the tumors from the treated group, C=weight of the tumors from the control group.

Assay [2] has as its system Meth A fibrosarcoma. The assay is described as follows: Antitumor testing against Meth A fibrosarcoma (oral, s.c. implanted). It counts as in vivo, mice. As to conditions: Mus musculus, read-out: Inhibition of tumor growth; for inhibition in vivo at 1500 µmol/kg: 1.5 mmole/kg/day × 7, p.o.; for inhibition in vivo at 3000 µmol/kg: 3.0 mmole/kg/day × 7, p.o.; for inhibition in vivo at 800 µmol/kg: 0.8 mmole/kg/day × 7, p.o. As to the method:
as §1, §2
Meth A fibrosarcoma cells (2×10^5 cells) were implanted subcutaneously into mice (21-22 g). The testing against Meth A fibrosarcoma and the calculation of the percent inhibition of tumor growth were effected according to a manner analogous to that of the testing against Sarcoma 180.

In the case of `CCCCCCCCCCCCCCCCCC(=O)Nc1nc(=O)n([C@@H]2O[C@H](C)[C@@H](O)[C@H]2O)cc1F` [Example 8, 5'-deoxy-5-fluoro-N^4-octadecanoylcytidine], in assay [1], the inhibition in vivo at 1400 µmol/kg is 20% and the inhibition in vivo at 2700 µmol/kg was 77%.
With `C[C@H]1O[C@@H](n2cc(F)c(N)nc2=O)[C@H](OC(=O)c2ccccc2)[C@@H]1OC(=O)c1ccccc1` [Example 57, 2',3'-di-O-benxoyl-5'-deoxy-5-fluorocytidine], in assay [2], the inhibition in vivo at 1500 µmol/kg was found to be 28% and the inhibition in vivo at 3000 µmol/kg amounted to 56%.
Consider `C[C@H]1O[C@@H](n2cc(F)c(NC(=O)C3CCCCC3)nc2=O)[C@H](O)[C@@H]1O` [Example 12, N^4-cyclohexanecarbonyl-5'-deoxy-5-fluorocytidine], for which the inhibition in vivo at 800 µmol/kg in assay [1] (0.8 mmole/kg/day × 7, p.o.) is 40%. In assay [1], the inhibition in vivo at 1500 µmol/kg stood at 73%.
Turning to `C[C@H]1O[C@@H](n2cc(F)c(NC(=O)Cc3c[nH]c4ccccc34)nc2=O)[C@H](O)[C@@H]1O` [Example 54, 5'-deoxy-5-fluoro-N^4-(3-indolylacetyl)cytidine], in assay [2], the inhibition in vivo at 1500 µmol/kg was determined as 55% and the inhibition in vivo at 3000 µmol/kg was 85%.
For `C[C@H]1O[C@@H](n2cc(F)c(NC(=O)CCc3ccccc3)nc2=O)[C@H](O)[C@@H]1O` [Example 52], in assay [2], the inhibition in vivo at 800 µmol/kg came to 41% and the inhibition in vivo at 1500 µmol/kg was determined as 51%.
For `C[C@H]1O[C@@H](n2cc(F)c(N)nc2=O)[C@H](O)[C@@H]1OC(=O)c1ccccc1` [Example 59, 3'-O-benzoyl-5'-deoxy-5-fluorocytidine], in assay [2], the inhibition in vivo at 1500 µmol/kg amounted to 23% and the inhibition in vivo at 3000 µmol/kg stood at 80%.
Regarding `CCCCCCCCC(=O)Nc1nc(=O)n([C@@H]2O[C@H](C)[C@@H](O)[C@H]2O)cc1F` [Example 6, 5'-deoxy-5-fluoro-N^4-nonanoylcytidine], in assay [1], the inhibition in vivo at 500 µmol/kg stood at 28% and the inhibition in vivo at 1500 µmol/kg was found to be 76%.
Consider `COc1ccc(C(=O)Nc2nc(=O)n([C@@H]3O[C@H](C)[C@@H](O)[C@H]3O)cc2F)c(OC)c1` [Example 28], for which, in assay [2], the inhibition in vivo at 1500 µmol/kg was -13% and the inhibition in vivo at 3000 µmol/kg is -13%.
As for `C=CCC(=O)Nc1nc(=O)n([C@@H]2O[C@H](C)[C@@H](O)[C@H]2O)cc1F` [Example 49, N^4-(3-butenoyl)-5'-deoxy-5-fluorocytidine], in assay [2], the inhibition in vivo at 1500 µmol/kg was determined as 58% and the inhibition in vivo at 3000 µmol/kg was 76%.
Regarding `C[C@H]1O[C@@H](n2cc(F)c(NC(=O)c3ccc(F)cc3)nc2=O)[C@H](O)[C@@H]1O` [Example 23, 5'-deoxy-5-fluoro-N^4-(4-fluorobenzoyl)cytidine], in assay [2], the inhibition in vivo at 800 µmol/kg stood at 56% and the inhibition in vivo at 1500 µmol/kg stood at 64%.
Consider `C[C@H]1O[C@@H](n2cc(F)c(NC(=O)Cc3ccccc3)nc2=O)[C@H](O)[C@@H]1O` [Example 14], for which, in assay [2], the inhibition in vivo at 1500 µmol/kg is 66% and the inhibition in vivo at 3000 µmol/kg is 94%.
Consider `C[C@H]1O[C@@H](n2cc(F)c(NC(=O)c3ccccc3Cl)nc2=O)[C@H](O)[C@@H]1O` [Example 22], for which, in assay [2], the inhibition in vivo at 1500 µmol/kg stood at 42% and the inhibition in vivo at 3000 µmol/kg came to 42%.
`CC(=O)Nc1nc(=O)n([C@@H]2O[C@H](C)[C@@H](O)[C@H]2O)cc1F` [Example 2, N^4-acetyl-5'-deoxy-5-fluorocytidine]: in assay [1], the inhibition in vivo at 1500 µmol/kg worked out at 84% and the inhibition in vivo at 3000 µmol/kg worked out at 91%.
On to `Cc1ccc(C(=O)Nc2nc(=O)n([C@@H]3O[C@H](C)[C@@H](O)[C@H]3O)cc2F)cc1C` [Example 53], for which, in assay [2], the inhibition in vivo at 1500 µmol/kg amounted to 48% and the inhibition in vivo at 3000 µmol/kg amounted to 85%.
On to `C[C@H]1O[C@@H](n2cc(F)c(NC(=O)C(C)(C)C)nc2=O)[C@H](O)[C@@H]1O` [Example 10, 5'-deoxy-5-fluoro-N^4-pivaloylcytidine], for which, in assay [1], the inhibition in vivo at 1500 µmol/kg amounted to 74% and the inhibition in vivo at 3000 µmol/kg is 97%.
As to `C[C@H]1O[C@@H](n2cc(F)c(NC(=O)c3ccc([N+](=O)[O-])cc3)nc2=O)[C@H](O)[C@@H]1O` [Example 29], in assay [2], the inhibition in vivo at 1500 µmol/kg is 49% and the inhibition in vivo at 3000 µmol/kg worked out at 92%.
For `C[C@H]1O[C@@H](n2cc(F)c(NC(=O)OCc3ccccc3)nc2=O)[C@H](O)[C@@H]1O` [Example 42, N^4-(benzyloxycarbonyl)-5'-deoxy-5-fluorocytidine], in assay [1], the inhibition in vivo at 500 µmol/kg came out at 0% and the inhibition in vivo at 1500 µmol/kg was 36%.
As to `Cc1cccc(C(=O)Nc2nc(=O)n([C@@H]3O[C@H](C)[C@@H](O)[C@H]3O)cc2F)c1` [Example 18], in assay [2], the inhibition in vivo at 1500 µmol/kg turned out to be 51% and the inhibition in vivo at 3000 µmol/kg came to 91%.
On to `COc1ccccc1C(=O)Nc1nc(=O)n([C@@H]2O[C@H](C)[C@@H](O)[C@H]2O)cc1F` [Example 25], for which, in assay [2], the inhibition in vivo at 1500 µmol/kg is -6% and the inhibition in vivo at 3000 µmol/kg was 34%.
On to `Cc1ccc(C(=O)Nc2nc(=O)n([C@@H]3O[C@H](C)[C@@H](O)[C@H]3O)cc2F)cc1` [Example 17], for which the inhibition in vivo at 1300 µmol/kg in assay [1] (1.3 mmole/kg/day × 7, p.o.) was determined as 75%. In addition, the inhibition in vivo at 2600 µmol/kg in assay [1] (2.6 mmole/kg/day × 7, p.o.) was 92%.
As to `CCCCCCCCCCCCCCCC(=O)Nc1nc(=O)n([C@@H]2O[C@H](C)[C@@H](O)[C@H]2O)cc1F` [Example 7, 5'-deoxy-5-fluoro-N^4-hexadecanoylcytidine], in assay [1], the inhibition in vivo at 1400 µmol/kg was 57% and the inhibition in vivo at 2700 µmol/kg was found to be 84%.
Turning to `C[C@H]1O[C@@H](n2cc(F)c(NC(=O)c3ccc4ccccc4c3)nc2=O)[C@H](O)[C@@H]1O` [Example 40, 5'-deoxy-5-fluoro-N^4-(2-naphthoyl)cytidine], in assay [2], the inhibition in vivo at 800 µmol/kg came out at 41% and the inhibition in vivo at 1500 µmol/kg turned out to be 57%.
Consider `C[C@H]1O[C@@H](n2cc(F)c(NC(=O)c3cccc([N+](=O)[O-])c3)nc2=O)[C@H](O)[C@@H]1O` [Example 30], for which, in assay [2], the inhibition in vivo at 1500 µmol/kg amounted to 55% and the inhibition in vivo at 3000 µmol/kg was found to be 58%.
As to `COc1ccc(C(=O)Nc2nc(=O)n([C@@H]3O[C@H](C)[C@@H](O)[C@H]3O)cc2F)cc1OC` [Example 26], in assay [2], the inhibition in vivo at 1500 µmol/kg is 37% and the inhibition in vivo at 3000 µmol/kg is 58%.
In the case of `Cc1ccccc1C(=O)Nc1nc(=O)n([C@@H]2O[C@H](C)[C@@H](O)[C@H]2O)cc1F` [Example 19], in assay [2], the inhibition in vivo at 1500 µmol/kg came to 3% and the inhibition in vivo at 3000 µmol/kg is 64%.
The corresponding values for `C[C@H]1O[C@@H](n2cc(F)c(NC(=O)c3ccc(Cl)cc3)nc2=O)[C@H](O)[C@@H]1O` [Example 20] are 53% and 84%.
On to `C[C@H]1O[C@@H](n2cc(F)c(NC(=O)c3ccco3)nc2=O)[C@H](O)[C@@H]1O` [Example 36, 5'-deoxy-5-fluoro-N^4-(2-furoyl)cytidine], for which, in assay [2], the inhibition in vivo at 1500 µmol/kg came to 53% and the inhibition in vivo at 3000 µmol/kg was 92%.
Turning to `C[C@H]1O[C@@H](n2cc(F)c(NC(=O)c3ccccc3)nc2=O)[C@H](O)[C@@H]1O` [Example 16, N^4-benzoyl-5'-deoxy-5-fluorocytidine], in assay [2], the inhibition in vivo at 800 µmol/kg was 38% and the inhibition in vivo at 1500 µmol/kg was determined as 58%.
Consider `CCSC(=O)Nc1nc(=O)n([C@@H]2O[C@H](C)[C@@H](O)[C@H]2O)cc1F` [Example 44, 5'-deoxy-N^4-(ethylthio)carbonyl-5-fluorocytidine], for which, in assay [2], the inhibition in vivo at 1500 µmol/kg was 38% and the inhibition in vivo at 3000 µmol/kg amounted to 66%.
As for `COc1cc(OC)cc(C(=O)Nc2nc(=O)n([C@@H]3O[C@H](C)[C@@H](O)[C@H]3O)cc2F)c1` [Example 27], in assay [2], the inhibition in vivo at 1500 µmol/kg was 58% and the inhibition in vivo at 3000 µmol/kg is 91%.
For `COC(=O)c1ccc(C(=O)Nc2nc(=O)n([C@@H]3O[C@H](C)[C@@H](O)[C@H]3O)cc2F)cc1` [Example 31, 5'-deoxy-5-fluoro-N^4-(4-methoxycarbonylbenzoyl)cytidine], in assay [2], the inhibition in vivo at 1500 µmol/kg stood at 55% and the inhibition in vivo at 3000 µmol/kg is 84%.
Regarding `C[C@H]1O[C@@H](n2cc(F)c(NC(=O)c3cccs3)nc2=O)[C@H](O)[C@@H]1O` [Example 37, 5'-deoxy-5-fluoro-N^4-(2-thenoyl)cytidine], in assay [2], the inhibition in vivo at 1500 µmol/kg was 59% and the inhibition in vivo at 3000 µmol/kg stood at 86%.
In the case of `C[C@H]1O[C@@H](n2cc(F)c(NC(=O)c3ccc4c(c3)OCO4)nc2=O)[C@H](O)[C@@H]1O` [Example 48, 5'-deoxy-5-fluoro-N^4-piperonyloylcytidine], in assay [2], the inhibition in vivo at 800 µmol/kg amounted to 42% and the inhibition in vivo at 1500 µmol/kg is 72%.
On to `CCC(=O)Nc1nc(=O)n([C@@H]2O[C@H](C)[C@@H](O)[C@H]2O)cc1F` [Example 45, 5'-deoxy-5-fluoro-N^4-propionylcytidine], for which, in assay [2], the inhibition in vivo at 1500 µmol/kg turned out to be 49% and the inhibition in vivo at 3000 µmol/kg was 71%.
Consider `C[C@H]1O[C@@H](n2cc(F)c(NC(=O)c3cccc(Cl)c3)nc2=O)[C@H](O)[C@@H]1O` [Example 21], for which, in assay [2], the inhibition in vivo at 800 µmol/kg is 17% and the inhibition in vivo at 1500 µmol/kg was found to be 60%.
